Here are results for two compounds from patent US8633204B2 (Pfizer Inc., priority 2006, dated 2014).

Each structure is given as a SMILES string.

Assay [1] deals with PI3-K in BT20 cells (phosphorylation of AKT at serine 473). As to the kind of experiment: PI3-Kα Cellular Assay (AKT Ser473 phosphorylation ELISA in BT20 cells). The note with it: Homo sapiens, BT-20, pAKT Ser473 ELISA, 1 hour incubation. In kind it is cell-based, human. The method, boiled down: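 Cells seeded overnight in 0.5% FBS, then exposed 1 h at 37 °C to an 11-concentration 1:3 dilution series, in duplicate.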

In assay [2] the target is PI3-Kα (Mus musculus (Mouse), UniProt P42337). As to the kind of experiment: PI3-Kα Biochemical Assay (fluorescence polarization kinase assay). The method, boiled down:
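Co-expressed mouse p110/p85 PI3-Kα (4 nM stock) acting on PI(4,5)P2 (60 μM stock) with ATP/MgCl2 in HEPES pH 7.4 buffer, 35 min at room temperature, then EDTA stop. PI(3,4,5)P3 product detected by displacement of TAMRA-PIP3 from Grip1 PH domain (FP, 535/580 nm). IC50 from sigmoidal fit of % inhibition.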
(In general: Polarisation of emitted light reports the rotation of a fluorescent probe.)

Chain of PI3-Kα (P42337 whole entry, the tested form may be a part): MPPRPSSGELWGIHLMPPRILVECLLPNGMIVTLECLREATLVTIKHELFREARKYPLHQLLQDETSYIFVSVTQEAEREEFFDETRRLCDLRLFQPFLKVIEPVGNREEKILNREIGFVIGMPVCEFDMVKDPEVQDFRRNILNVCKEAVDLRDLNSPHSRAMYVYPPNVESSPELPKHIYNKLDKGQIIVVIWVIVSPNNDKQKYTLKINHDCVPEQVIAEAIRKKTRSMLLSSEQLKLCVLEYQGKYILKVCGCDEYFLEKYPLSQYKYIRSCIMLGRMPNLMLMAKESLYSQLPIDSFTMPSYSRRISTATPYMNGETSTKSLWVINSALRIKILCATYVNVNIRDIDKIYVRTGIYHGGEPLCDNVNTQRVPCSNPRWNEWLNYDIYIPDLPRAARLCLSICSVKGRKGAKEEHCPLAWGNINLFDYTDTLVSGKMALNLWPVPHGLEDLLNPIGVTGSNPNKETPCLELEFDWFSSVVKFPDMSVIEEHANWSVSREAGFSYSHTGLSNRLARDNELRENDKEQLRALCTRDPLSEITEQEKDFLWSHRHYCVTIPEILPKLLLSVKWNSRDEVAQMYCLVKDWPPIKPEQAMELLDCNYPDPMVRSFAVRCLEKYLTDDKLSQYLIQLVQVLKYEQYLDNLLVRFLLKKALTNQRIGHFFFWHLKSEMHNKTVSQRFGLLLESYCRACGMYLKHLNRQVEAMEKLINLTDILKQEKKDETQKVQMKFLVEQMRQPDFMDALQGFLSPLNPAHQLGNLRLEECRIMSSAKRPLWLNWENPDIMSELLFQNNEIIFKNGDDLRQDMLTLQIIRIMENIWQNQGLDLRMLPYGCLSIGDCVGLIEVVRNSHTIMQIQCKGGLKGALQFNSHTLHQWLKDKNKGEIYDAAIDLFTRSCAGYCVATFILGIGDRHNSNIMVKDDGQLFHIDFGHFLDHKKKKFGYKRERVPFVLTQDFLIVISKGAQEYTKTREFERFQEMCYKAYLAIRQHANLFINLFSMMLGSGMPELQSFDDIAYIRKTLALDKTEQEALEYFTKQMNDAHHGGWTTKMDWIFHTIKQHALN
Chain of PI3-Kα (P26450 whole entry partner, the tested form may be a part): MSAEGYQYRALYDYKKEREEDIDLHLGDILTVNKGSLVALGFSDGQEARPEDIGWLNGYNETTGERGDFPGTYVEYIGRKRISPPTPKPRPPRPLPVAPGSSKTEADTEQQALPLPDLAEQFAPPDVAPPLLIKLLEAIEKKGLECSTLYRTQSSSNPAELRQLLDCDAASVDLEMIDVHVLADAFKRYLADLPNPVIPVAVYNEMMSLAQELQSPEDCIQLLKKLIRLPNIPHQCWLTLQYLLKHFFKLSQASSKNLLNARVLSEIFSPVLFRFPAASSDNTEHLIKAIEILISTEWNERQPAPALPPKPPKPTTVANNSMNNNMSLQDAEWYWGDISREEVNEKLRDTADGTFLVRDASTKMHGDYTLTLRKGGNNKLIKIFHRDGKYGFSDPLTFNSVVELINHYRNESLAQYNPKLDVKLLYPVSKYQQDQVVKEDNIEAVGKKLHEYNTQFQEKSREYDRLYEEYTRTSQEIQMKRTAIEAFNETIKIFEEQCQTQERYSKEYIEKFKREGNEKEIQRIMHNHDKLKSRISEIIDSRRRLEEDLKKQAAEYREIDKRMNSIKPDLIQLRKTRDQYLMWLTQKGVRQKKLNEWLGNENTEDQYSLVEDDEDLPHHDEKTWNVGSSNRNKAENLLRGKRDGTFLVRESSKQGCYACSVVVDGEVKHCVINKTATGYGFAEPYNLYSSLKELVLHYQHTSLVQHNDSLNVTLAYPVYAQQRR

For the compound `COc1ncc(-c2cc3c(C)nc(N)nc3n([C@H]3C[C@H](OCC(N)=O)C3)c2=O)cc1F` [Compound 318, 2-({trans-3-(2-amino-6-(5-fluoro-6-methoxypyridin-3-yl)-4-methyl-7-oxopyrido[2,3-yl]pyrimidin-8(7H)-yl)cyclobutyl}oxy)acetamide], the figures for the IC50 in assay [1] and in assay [2] were 12.6 nM and 2.14 nM, respectively.

Take `COc1ncc(-c2cc3c(C)nc(N)nc3n([C@H]3C[C@H](OCC(N)=O)C3)c2=O)cn1` [Compound 319, 2-({trans-3-(2-amino-6-(2-methoxypyrimidin-5-yl)-4-methyl-7-oxopyrido[2,3-d]pyrimidin-8(7H)-yl]cydobutyl}oxy)acetamide]: the IC50 – broadly, the concentration at which inhibition is half-maximal – in assay [1] was determined as 110 nM; in assay [2] it was 5.91 nM.
